Source: ChEMBL document CHEMBL5506055, “Hit-to-Lead Optimization of the Natural Product Oridonin as Novel NLRP3 Inflammasome Inhibitors with Potent Anti-Inflammation Activity” (J Med Chem, 2024)
The source made the active and inactive calls. The rule behind the calls is not given here.

Experiments:
[1] = target: NACHT, LRR and PYD domains-containing protein 3 (Mus musculus) (UniProt Q8R4B8); experiment: Inhibition of NLRP3 inflammasome activation in LPS-induced C57BL/6 mouse BMDMs assessed as reduction in NLRP3 mRNA level at 50 to 200 nM preincubated for 24 hrs followed by LPS addition for 4 hrs by qRT-PCR analysis; type: cell-based; conditions: BMDM, dose 50-200 nM, time 28.0 hrs
[2] = target: NACHT, LRR and PYD domains-containing protein 3 (Mus musculus) (UniProt Q8R4B8); experiment: Inhibition of NLRP3 inflammasome activation in LPS/nigericin-induced C57BL/6 mouse BMDMs at 200 nM preincubated with LPS for 4 hrs followed by compound addition for 30 mins and further stimulated with nigericin for 30 mins by ELISA; type: cell-based; conditions: BMDM, time 1.0 hrs
[3] = target: NACHT, LRR and PYD domains-containing protein 3 (Mus musculus) (UniProt Q8R4B8); experiment: Inhibition of NLRP3 inflammasome activation in LPS/ATP-induced C57BL/6 mouse BMDMs assessed as reduction in NLRP3 expression preincubated with compound prior to LPS addition for 30 mins and further stimulated with ATP for 30 mins by Western blotting analysis; type: cell-based; conditions: BMDM, dose 50-200 nM, time 60.0 min
Mus musculus = experiment: Antiinflammatory activity in MSU-induced C57BL/6 mouse model of arthritis at 100 mg/kg, po measured upto 24 hrs; type: functional, organism-based

Chain of NACHT, LRR and PYD domains-containing protein 3 (Mus musculus) (Q8R4B8 whole entry, the tested form may be a part): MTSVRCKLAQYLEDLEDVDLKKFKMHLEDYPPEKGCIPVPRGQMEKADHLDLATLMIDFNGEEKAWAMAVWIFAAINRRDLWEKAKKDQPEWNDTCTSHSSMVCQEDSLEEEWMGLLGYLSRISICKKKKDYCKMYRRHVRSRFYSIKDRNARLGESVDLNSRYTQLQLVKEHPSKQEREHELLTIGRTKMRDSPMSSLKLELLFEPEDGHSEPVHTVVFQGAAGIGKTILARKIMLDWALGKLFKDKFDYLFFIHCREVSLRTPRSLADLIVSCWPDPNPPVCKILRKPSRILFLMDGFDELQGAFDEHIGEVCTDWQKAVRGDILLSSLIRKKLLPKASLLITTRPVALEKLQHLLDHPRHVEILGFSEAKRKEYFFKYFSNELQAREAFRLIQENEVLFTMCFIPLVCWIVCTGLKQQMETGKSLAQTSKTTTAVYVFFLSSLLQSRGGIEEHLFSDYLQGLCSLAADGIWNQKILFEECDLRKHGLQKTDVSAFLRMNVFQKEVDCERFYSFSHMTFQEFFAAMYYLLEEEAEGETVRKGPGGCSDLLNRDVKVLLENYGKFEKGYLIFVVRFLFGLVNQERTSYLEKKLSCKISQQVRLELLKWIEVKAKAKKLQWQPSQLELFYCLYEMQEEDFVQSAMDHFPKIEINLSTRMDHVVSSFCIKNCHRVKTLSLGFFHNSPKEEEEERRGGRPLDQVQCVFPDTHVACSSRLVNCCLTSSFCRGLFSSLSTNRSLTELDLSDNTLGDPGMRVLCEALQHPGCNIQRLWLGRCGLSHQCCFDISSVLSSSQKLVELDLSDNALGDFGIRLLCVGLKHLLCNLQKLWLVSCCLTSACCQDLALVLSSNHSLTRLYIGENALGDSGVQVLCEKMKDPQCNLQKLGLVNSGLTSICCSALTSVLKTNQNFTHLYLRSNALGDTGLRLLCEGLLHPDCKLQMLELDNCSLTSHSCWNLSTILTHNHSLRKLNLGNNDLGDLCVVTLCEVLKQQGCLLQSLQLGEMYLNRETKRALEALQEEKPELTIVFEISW

inhibition [1]: inactive | inhibition [2]: Active | inhibition [3]: inactive
SMILES: C=C1C(=O)[C@]23[C@H](O)[C@H]1CC[C@H]2[C@]12C=CCC(C)(C)[C@H]1[C@H](O)[C@@]3(OCCC(=O)O)OC2
Activity (Mus musculus): Active
